Results: PMC5681660, “Reduced hepatitis B and D viral entry using clinically applied drugs as novel inhibitors of the bile acid transporter NTCP” (Scientific Reports, 2017)
Counter-ions that a name gives are not always drawn.

Assays:
[1] = biological target: T1, human NTCP (Homo sapiens, UniProt Q14973); assay: Screening taurocholate uptake assay (96-well, [14C]taurocholate, 10 µM drug); settings: for B-score functional assay: 10 µM drug
T1 sequence (Q14973 1-349): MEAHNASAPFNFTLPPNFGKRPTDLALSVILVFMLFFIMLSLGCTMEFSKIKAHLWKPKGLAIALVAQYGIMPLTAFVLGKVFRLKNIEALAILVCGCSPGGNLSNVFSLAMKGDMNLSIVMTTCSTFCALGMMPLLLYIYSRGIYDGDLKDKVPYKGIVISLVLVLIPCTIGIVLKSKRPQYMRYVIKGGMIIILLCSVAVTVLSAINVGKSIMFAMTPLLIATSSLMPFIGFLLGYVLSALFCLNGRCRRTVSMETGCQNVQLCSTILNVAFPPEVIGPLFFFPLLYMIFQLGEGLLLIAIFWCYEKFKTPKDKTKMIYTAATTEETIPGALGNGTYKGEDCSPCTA

[2] = biological target: T1, human NTCP; assay: Screening fluorescent competitive Myrcludex B-FITC binding assay (96-well, 10 µM drug); settings: 10 µM drug
[3] = combined ranking from functional and binding screening assays
[4] = screen, Myrcludex B-FITC binding
[5] = Prestwick library screen, taurocholate uptake
[6] = ranking score beside the functional and binding assay B-scores of the screen
[7] = Prestwick library screen, Myrcludex B-FITC binding
[8] = Prestwick library screen, B-score of taurocholate uptake
[9] = combined ranking from functional and binding assay B-scores
[10] = Prestwick library screen, B-score of Myrcludex B-FITC binding

Compound | Ranking score [1, 3] | B-score functional assay ([1]; screen, taurocholate uptake) | B-score binding assay [2, 4] | B-score functional assay [1, 5] | Ranking score [1, 6] | B-score binding assay [2, 7] | further results
CCOc1ccc2c(c1)C(C)=CC(C)(C)N2 [Ethoxyquin] | 406.463 | 0.194 | -1.217 | – | – | – | –
CC(O)(P(=O)([O-])O)P(=O)([O-])O.[Na+].[Na+] [Etidronic acid, disodium salt] | – | – | – | -0.023 | 776.081 | 0.806 | –
Cn1c(=O)c2c(ncn2CCO)n(C)c1=O [Etofylline] | – | – | – | 0.319 | 831.39 | 0.258 | –
CCOC(=O)c1cncn1[C@H](C)c1ccccc1 [Etomidate] | – | – | – | – | – | – | B-score functional assay [1, 8]: 5.522; Ranking score [1, 9]: 852.333; B-score binding assay [2, 10]: -0.068
COc1cc([C@@H]2c3cc4c(cc3[C@@H](O[C@@H]3O[C@@H]5CO[C@@H](C)O[C@H]5[C@H](O)[C@H]3O)[C@H]3COC(=O)[C@H]23)OCO4)cc(OC)c1O [Etoposide] | 333.467 | -1.678 | 0.046 | – | – | – | –
Cc1ccc(-c2ncc(Cl)cc2-c2ccc(S(C)(=O)=O)cc2)cn1 [Etoricoxib] | 393.756 | -0.663 | -0.254 | – | – | – | –
CCOC(=O)/C=C(C)/C=C/C=C(C)/C=C/c1c(C)cc(OC)c(C)c1C [Etretinate] | – | – | – | 0.504 | 712.48 | -0.079 | –
CC1CC(OC(=O)C(O)c2ccccc2)CC(C)(C)N1C (stereo not drawn) [Eucatropine hydrochloride] | – | – | – | – | – | – | B-score functional assay [1, 8]: 0.117; Ranking score [1, 9]: 950.91; B-score binding assay [2, 10]: 1.847
NC(N)=Nc1nc(CSCCC(N)=NS(N)(=O)=O)cs1 [Famotidine] | – | – | – | 0.754 | 828.628 | 0.039 | –
CC(C)c1c(CN(C)C(C)Cc2ccccc2)n(C)n(-c2ccccc2)c1=O (stereo not drawn) [Famprofazone] | 376.915 | -0.708 | -0.284 | – | – | – | –
O=C(O)CCC(=O)c1ccc(-c2ccccc2)cc1 [Fenbufen] | 326.986 | -1.216 | -0.209 | – | – | – | –
CC(NCCC(c1ccccc1)c1ccccc1)c1ccccc1 (stereo not drawn) [Fendiline hydrochloride] | – | – | – | – | – | – | B-score functional assay [1, 8]: 0.662; Ranking score [1, 9]: 880.552; B-score binding assay [2, 10]: 0.223
CCCCC(O)c1ccccc1 (stereo not drawn) [Fenipentol] | 460.361 | -0.409 | -0.138 | – | – | – | –
CC(C(=O)[O-])c1cccc(Oc2ccccc2)c1.CC(C(=O)[O-])c1cccc(Oc2ccccc2)c1.O.O.[Ca+2] (stereo not drawn) [Fenoprofen calcium salt dihydrate] | 452.388 | -0.759 | 0.022 | – | – | – | –
CC(Cc1ccc(O)cc1)NCC(O)c1cc(O)cc(O)c1 (stereo not drawn) [Fenoterol hydrobromide] | 457.393 | 1.4 | -1.328 | – | – | – | –
O=C1NCC2(CCN(CCc3ccccc3)CC2)O1 [Fenspiride hydrochloride] | – | – | – | 0.107 | 788.391 | 0.26 | –
O=C(O)Cc1sc(-c2ccccc2)nc1-c1ccc(Cl)cc1 [Fentiazac] | 402.269 | -1.501 | 0.475 | – | – | – | –
CC(C)(C)NC(=O)[C@H]1CC[C@H]2[C@@H]3CC[C@H]4NC(=O)C=C[C@]4(C)[C@H]3CC[C@]12C [Finasteride] | 406.586 | -1.623 | 0.768 | – | – | – | –
Cc1c(-c2ccccc2)oc2c(C(=O)OCCN3CCCCC3)cccc2c1=O [Flavoxate hydrochloride] | – | – | – | -0.169 | 734.394 | 1.224 | –
O=C(NCC1CCCCN1)c1cc(OCC(F)(F)F)ccc1OCC(F)(F)F (stereo not drawn) [Flecainide acetate] | 448.174 | -1.076 | 0.272 | – | – | – | –
O=c1[nH]c(=O)n([C@H]2C[C@H](O)[C@@H](CO)O2)cc1F [Floxuridine] | – | – | – | 0.659 | 772.114 | -0.009 | –
COC(=O)Nc1nc2cc(C(=O)c3ccc(F)cc3)ccc2[nH]1 [Flubendazol] | – | – | – | 1.185 | 683.74 | -0.335 | –
